Experimental data: patent US11602570B2, “Compositions and systems for renal function determination” (MediBeacon Inc., priority 2017, dated 2023)

Key:
[1] = Clinical study: plasma pharmacokinetics of MB-102 given intravenously to human patients; assay type: in vivo
Protocol: (§1) In a clinical study, 60 human patients were administered MB-102 ((2R,2′R)-2,2′-((3,6-diaminopyrazine-2,5-dicarbonyl)bis(azanediyl))bis(3-hydroxypropanoic acid)) prepared in Example 12) intravenously. Blood and urine were collected in addition to the methods and techniques disclosed herein. Standard pharmacokinetic data was collected and comparison was made between the methods and techniques disclosed herein to Omnipaque® (iohexol), a known contrast agent used for GFR determination.
Shown in FIGS. 3A to 3D are data collected from the 60 human patients tested with MB-102. Plasma pharmacokinetic data was collected and analyzed using methods known in the art and compared to the data measured using the methods and techniques disclosed herein.
FIGS. 3A to 3D illustrate a two compartment pharmacokinetic model for the elimination of MB-102. The model is consistent for patients regardless of their GFR values. FIG. 3A is for patients having normal kidney function having a measured GFR (mGFR) of 120 mL/min. FIG. 3B is for patients having a mGFR of 81 mL/min. FIG. 3C is for patients having a mGFR of 28 mL/min. FIG. 3D is for patients having a mGFR of 25 mL/min. The first compartment in the two compartment model is the vascular to tissue equilibrium while the second compartment illustrates renal excretion only. On average, the time for equilibration is about one hour, and is subject dependent.
Shown in FIG. 6 is the plasma concentration half-life of MB-102 for patients having either normal kidney function, stage 1 renal impairment, stage 2 renal impairment, stage 3 renal impairment, or stage 4 renal impairment.

[2] = Stability testing of MB-102, HPLC evaluation; assay type: physicochemical; settings: 25° C. and 60% relative humidity
Protocol: Samples of MB-102 were prepared and stored at 25° C. and 60% relative humidity for 24 months. HPLC evaluation of each sample was performed at various time points to assess the stability of the samples.

[3] = Clinical study: 12 hour urine collection, amount recovered and degree of secondary metabolism; assay type: in vivo, human
Protocol: as §1
As part of the clinical 1 study for MB-102, urine was collected from patients for 12 hours to determine the amount recovered and degree of secondary metabolism. […] For patients having normal, stage 1 and stage 2 renal function, 12 hour collection time was sufficient for greater than 99% recovery of MB-102. In view of the pharmacokinetic data and the plasma half-life determination, less than complete collection is readily understood for patients having more serious renal function impairment.

## Nc1nc(C(=O)N[C@H](CO)C(=O)O)c(N)nc1C(=O)N[C@H](CO)C(=O)O [MB-102, (2R,2′R)-2,2′-((3,6-diaminopyrazine-2,5-dicarbonyl)bis(azanediyl))bis(3-hydroxypropanoic acid)]
[1]; human patients, intravenous, on average, subject dependent
  time for equilibration (vascular to tissue equilibrium): about one
[1]; normal renal function group
  average plasma half-life: two
[1]; stage 3 renal impairment
  plasma half-life: 4 h
[2]; 0 months
  Purity (HPLC): >99%
[2]; 6 months
  Purity (HPLC): >99%
[2]; 12 months
  Purity (HPLC): 98.9%
[2]; 18 months
  Purity (HPLC): 98.3%
[2]; 24 months
  Purity (HPLC): 97.8%
[3]; patients having a mGFR value below 60, 12 hours, likewise unmetabolized
  MB-102 recovered from urine: a lower percentage was recovered
[3]; patients having an eGFR greater than 60, after 12 hours
  MB-102 recovered unmetabolized from urine: greater than 99%
